The source of these data is patent US11912647B2, “Diversity-oriented synthesis of N,N,O-trisubstituted hydroxylamines from alcohols and amines by N—O bond formation” (University of Georgia Research Foundation, Inc., priority 2020, dated 2024).

Usually melting point stands for the temperature, or range, at which the solid turns liquid. One may read the IC50 as the concentration that inhibits the measured activity by half.

Data set [1] relates to human hepatocarcinoma cell line HepG2. Particulars: cited from earlier work.

Molecule `CC(C)(C)ON1CCN(c2ccc(C(F)(F)F)cc2)CC1` returned a melting point of 77.6 to 78.8 °C. The molecule `CC(C)(C)ON1CCN(c2cccc(Cl)c2Cl)CC1` returned a melting point of 92 to 93 °C.

For the molecule 10-aza-9-oxakalkitoxin, the IC50 in data set [1] is 2.4 ng/mL. Also, the “activity toward HepG2 relative to kalkitoxin” value in data set [1] (hydroxalog versus parent natural product) is on record as “complete retention of activity”. Turning to kalkitoxin, the IC50 in data set [1] was 3.2 ng/mL.
